# ChEMBL document CHEMBL1201862, “PubChem BioAssay data set” (2004)
# Calls of active or inactive are those of the source.
# Key:
# [1] = molecular target: T1, Rac GTPase-activating protein 1 (Homo sapiens, UniProt Q9H0H5); experiment: blockers of MgcRacGAP-driven Rac1 GTP hydrolysis – biochemical, ADP Hunter fluorescence, primary and confirmatory, confirmation (AID 624330); format: functional
# T1 sequence (Q9H0H5 whole entry): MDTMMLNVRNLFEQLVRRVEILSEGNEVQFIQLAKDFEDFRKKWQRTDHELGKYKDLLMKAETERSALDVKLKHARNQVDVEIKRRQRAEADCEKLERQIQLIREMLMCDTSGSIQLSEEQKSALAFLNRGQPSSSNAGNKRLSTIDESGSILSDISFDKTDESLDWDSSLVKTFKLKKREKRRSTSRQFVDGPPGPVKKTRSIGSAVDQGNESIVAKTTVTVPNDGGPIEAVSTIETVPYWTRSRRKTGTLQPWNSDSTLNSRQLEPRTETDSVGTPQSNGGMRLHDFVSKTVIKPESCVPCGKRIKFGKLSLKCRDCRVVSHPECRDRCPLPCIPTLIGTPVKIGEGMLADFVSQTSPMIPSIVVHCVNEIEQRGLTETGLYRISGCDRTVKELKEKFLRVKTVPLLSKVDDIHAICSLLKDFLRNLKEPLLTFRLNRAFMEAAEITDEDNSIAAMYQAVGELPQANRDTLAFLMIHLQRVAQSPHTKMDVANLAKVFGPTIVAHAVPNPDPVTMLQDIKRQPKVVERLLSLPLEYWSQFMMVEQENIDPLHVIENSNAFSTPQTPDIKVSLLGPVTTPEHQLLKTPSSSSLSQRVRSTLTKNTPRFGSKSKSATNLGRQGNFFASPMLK
# [2] = molecular target: Alkaline phosphatase, placental type (Homo sapiens, UniProt P05187); experiment: human placental alkaline phosphatase inhibition – biochemical, luminescence, confirmation (AID 1512); format: functional
# Chain of Alkaline phosphatase, placental type (P05187 whole entry): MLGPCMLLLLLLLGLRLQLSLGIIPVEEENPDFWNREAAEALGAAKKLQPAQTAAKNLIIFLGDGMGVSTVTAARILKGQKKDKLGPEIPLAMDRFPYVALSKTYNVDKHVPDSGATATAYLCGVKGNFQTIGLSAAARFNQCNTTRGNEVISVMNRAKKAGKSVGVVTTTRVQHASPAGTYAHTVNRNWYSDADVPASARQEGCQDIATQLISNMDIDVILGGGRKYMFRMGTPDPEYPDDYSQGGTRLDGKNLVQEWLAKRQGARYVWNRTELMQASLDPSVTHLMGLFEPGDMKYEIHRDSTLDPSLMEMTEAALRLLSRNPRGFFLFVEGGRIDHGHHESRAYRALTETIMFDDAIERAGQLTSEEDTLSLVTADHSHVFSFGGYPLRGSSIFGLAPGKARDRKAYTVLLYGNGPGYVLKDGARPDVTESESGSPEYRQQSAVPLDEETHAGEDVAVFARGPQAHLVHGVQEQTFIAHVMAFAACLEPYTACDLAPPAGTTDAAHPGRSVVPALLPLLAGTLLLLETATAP
# [3] = molecular target: Intestinal-type alkaline phosphatase (Homo sapiens, UniProt P09923); experiment: activation of human intestinal alkaline phosphatase – biochemical, dose response (AID 488873); format: functional
# Chain of Intestinal-type alkaline phosphatase (Homo sapiens, UniProt P09923) (P09923 whole entry): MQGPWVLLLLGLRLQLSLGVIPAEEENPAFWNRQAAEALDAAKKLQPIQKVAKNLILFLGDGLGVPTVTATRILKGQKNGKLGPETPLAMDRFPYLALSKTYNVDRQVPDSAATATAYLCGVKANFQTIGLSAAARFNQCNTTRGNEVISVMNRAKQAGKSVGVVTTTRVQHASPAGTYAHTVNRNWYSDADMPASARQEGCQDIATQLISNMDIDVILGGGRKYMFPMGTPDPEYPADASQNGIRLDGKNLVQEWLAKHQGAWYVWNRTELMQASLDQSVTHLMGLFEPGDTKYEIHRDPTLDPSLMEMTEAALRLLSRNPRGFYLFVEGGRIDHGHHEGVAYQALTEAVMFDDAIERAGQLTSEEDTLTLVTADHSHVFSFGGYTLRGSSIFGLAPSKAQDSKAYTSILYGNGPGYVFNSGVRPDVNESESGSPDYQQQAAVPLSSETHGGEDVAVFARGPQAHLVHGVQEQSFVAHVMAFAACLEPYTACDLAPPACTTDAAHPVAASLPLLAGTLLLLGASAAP
# [4] = molecular target: T2, Bcl-2-like protein 10 (Homo sapiens, UniProt Q9HD36); experiment: Bcl-B/TR3 peptide binding disruption – biochemical, fluorescence polarization, FITC-TR3 peptide, selectivity assay for Bfl-1 inhibitor project, primary screen (AID 748);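 note: fluorescence polarization from a fluorescein-labelled TR3 peptide binding purified Bcl-B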
# T2 sequence (Q9HD36 whole entry): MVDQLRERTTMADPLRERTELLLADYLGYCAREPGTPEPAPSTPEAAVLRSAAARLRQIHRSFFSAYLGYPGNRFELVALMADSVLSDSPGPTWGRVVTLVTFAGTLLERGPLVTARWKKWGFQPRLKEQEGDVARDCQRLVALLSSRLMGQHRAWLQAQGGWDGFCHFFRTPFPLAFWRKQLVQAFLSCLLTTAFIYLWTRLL
# [5] = molecular target: Intestinal-type alkaline phosphatase (Mus musculus, UniProt P24822); experiment: mouse intestinal alkaline phosphatase activators, dose response, biochemical, luminescence, uHTS hits (AID 488783); format: functional
# Chain of Intestinal-type alkaline phosphatase (Mus musculus, UniProt P24822) (P24822 whole entry): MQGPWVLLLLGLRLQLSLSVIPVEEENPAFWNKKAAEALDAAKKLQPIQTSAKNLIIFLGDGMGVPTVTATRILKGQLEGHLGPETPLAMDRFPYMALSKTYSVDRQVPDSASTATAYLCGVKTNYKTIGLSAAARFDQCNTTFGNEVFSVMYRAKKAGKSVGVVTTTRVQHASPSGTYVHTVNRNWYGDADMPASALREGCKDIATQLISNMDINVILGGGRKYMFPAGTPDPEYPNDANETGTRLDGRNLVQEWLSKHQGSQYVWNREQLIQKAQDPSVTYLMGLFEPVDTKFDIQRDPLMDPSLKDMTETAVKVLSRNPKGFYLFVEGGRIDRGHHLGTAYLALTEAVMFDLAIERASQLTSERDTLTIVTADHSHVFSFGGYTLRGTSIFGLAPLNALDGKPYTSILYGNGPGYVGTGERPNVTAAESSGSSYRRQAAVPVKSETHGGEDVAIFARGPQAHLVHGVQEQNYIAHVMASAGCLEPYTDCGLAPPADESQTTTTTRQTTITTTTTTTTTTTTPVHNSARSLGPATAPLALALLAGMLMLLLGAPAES
# [6] = molecular target: T3, Alkaline phosphatase, tissue-nonspecific isozyme (Homo sapiens, UniProt P05186); experiment: activation of tissue-nonspecific alkaline phosphatase – biochemical, TNAP isozyme, mouse IAP uHTS hits, selectivity assay for mouse IAP activator project, dose response (AID 488880); format: functional
# T3 sequence (P05186 whole entry): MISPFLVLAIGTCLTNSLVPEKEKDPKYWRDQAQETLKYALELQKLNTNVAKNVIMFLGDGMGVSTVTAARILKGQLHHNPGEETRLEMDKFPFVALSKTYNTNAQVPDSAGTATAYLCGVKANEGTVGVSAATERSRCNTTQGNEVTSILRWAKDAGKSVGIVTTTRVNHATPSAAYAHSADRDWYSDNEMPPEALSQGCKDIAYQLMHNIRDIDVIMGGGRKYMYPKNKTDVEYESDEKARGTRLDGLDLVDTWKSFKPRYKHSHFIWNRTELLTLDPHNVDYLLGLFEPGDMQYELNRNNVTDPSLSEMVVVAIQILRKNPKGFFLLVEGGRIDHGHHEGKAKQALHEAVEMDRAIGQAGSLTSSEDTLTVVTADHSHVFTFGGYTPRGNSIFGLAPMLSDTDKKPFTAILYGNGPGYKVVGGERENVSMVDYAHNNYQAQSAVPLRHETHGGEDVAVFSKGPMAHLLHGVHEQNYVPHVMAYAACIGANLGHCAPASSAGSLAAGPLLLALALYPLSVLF
# [7] = NIH-3T3 fibroblast cytotoxicity, dose response, cytotoxicity control, cell-based, fluorescence, Alamar Blue, secondary assay (AID 2327); format: functional;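 note: NIH-3T3 mouse fibroblasts cultured with fluconazole at 8 µg/mL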
# [8] = molecular target: T3, Alkaline phosphatase, tissue-nonspecific isozyme; experiment: potency against alkaline phosphatase TNAP – biochemical, luminescent, dose response, SAR follow-up (AID 1056)
# [9] = fluconazole-exposed Candida albicans growth modulators – fluorescence, retest, confirmation (AID 2467); format: functional, cell-based
# [10] = molecular target: T4, Aminopeptidase N (Plasmodium falciparum FcB1/Columbia, UniProt O96935); experiment: malaria alanyl aminopeptidase activity blockers – biochemical, fluorogenic H-Leu-NHMec substrate, 1536-well (AID 1445); parameters: species or system Plasmodium falciparum 3D7, 3D7
# T4 sequence (O96935 whole entry): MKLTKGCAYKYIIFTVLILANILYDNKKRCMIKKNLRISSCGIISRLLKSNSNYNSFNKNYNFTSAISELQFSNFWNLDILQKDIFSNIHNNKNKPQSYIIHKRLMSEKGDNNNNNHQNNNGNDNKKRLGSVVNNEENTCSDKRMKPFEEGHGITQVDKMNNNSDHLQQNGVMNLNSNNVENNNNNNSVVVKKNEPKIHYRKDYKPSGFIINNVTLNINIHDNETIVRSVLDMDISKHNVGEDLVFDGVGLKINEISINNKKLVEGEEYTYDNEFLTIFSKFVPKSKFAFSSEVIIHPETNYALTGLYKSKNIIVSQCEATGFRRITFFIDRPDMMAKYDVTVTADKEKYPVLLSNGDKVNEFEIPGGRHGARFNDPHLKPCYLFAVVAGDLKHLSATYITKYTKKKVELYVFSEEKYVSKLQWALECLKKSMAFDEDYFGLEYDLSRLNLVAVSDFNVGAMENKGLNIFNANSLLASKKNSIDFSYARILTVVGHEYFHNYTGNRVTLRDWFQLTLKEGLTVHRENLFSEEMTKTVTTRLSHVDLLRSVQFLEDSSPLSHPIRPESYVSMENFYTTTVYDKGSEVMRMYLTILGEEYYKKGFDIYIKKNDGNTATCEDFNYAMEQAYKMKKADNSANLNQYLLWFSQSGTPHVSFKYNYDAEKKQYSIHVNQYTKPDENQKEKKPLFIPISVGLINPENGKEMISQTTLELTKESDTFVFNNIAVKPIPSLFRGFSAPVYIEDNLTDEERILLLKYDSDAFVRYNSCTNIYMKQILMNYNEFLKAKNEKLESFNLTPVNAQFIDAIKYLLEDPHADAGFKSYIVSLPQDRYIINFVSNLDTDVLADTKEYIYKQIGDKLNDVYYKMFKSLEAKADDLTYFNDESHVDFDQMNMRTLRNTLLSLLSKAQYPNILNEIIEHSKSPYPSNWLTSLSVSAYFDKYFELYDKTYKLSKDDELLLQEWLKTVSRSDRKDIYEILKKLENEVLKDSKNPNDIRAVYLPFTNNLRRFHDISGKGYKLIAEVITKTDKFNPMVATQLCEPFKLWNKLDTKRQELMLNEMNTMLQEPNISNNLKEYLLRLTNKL
# [11] = molecular target: T5, Kappa-type opioid receptor (Homo sapiens, UniProt P41145); experiment: kappa opioid receptor activation by imaging – image-based, set 3, SAR follow-up (AID 488833); format: functional
# T5 sequence (P41145 whole entry): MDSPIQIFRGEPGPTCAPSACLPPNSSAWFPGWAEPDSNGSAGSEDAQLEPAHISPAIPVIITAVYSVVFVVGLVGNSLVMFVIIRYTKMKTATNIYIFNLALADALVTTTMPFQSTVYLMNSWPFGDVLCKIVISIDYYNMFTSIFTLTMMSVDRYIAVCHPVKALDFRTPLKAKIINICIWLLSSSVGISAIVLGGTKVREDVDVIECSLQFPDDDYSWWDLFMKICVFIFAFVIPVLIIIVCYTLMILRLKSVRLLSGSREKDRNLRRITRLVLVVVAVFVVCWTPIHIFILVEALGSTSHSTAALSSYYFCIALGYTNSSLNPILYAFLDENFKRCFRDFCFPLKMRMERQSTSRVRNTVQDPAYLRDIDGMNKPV
# [12] = molecular target: Delta-type opioid receptor (Homo sapiens, UniProt P41143); experiment: SAR Analysis of Agonists of the DOR Receptor using an Image-Based Assay - Set 3. [Related pubchem assays (depositor defined):AID1777, AID1786]; format: functional
# Chain of Delta-type opioid receptor (P41143 whole entry): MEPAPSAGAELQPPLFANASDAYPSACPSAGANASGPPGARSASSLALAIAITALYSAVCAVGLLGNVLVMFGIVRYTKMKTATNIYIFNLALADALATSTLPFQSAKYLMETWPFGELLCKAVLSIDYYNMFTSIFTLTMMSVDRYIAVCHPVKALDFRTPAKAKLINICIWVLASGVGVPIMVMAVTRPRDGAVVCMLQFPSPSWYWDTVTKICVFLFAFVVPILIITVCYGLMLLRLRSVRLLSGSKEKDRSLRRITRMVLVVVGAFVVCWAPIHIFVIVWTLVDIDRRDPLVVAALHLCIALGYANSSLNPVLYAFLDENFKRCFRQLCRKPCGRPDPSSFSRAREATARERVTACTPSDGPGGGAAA
# [13] = molecular target: Mu-type opioid receptor (Homo sapiens, UniProt P35372); experiment: SAR Analysis of Agonists of the MOR Receptor using an Image-Based Assay - Set 3. [Related pubchem assays (depositor defined):AID1777, AID1785, AID1786, AID1966, AID2133, AID2136, AID2284, AID2285, AID2352]; format: functional
# Chain of Mu-type opioid receptor (P35372 whole entry): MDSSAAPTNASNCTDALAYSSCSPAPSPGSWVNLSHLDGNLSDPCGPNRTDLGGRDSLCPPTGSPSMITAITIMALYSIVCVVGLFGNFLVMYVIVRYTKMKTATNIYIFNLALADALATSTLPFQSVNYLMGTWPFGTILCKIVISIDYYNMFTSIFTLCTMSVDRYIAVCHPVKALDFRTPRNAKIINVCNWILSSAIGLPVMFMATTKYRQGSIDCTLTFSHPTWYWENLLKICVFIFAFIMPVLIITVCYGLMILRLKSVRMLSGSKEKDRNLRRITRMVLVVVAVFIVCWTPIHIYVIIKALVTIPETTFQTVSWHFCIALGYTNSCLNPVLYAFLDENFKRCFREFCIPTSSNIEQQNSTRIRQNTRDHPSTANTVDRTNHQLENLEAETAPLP
# [14] = molecular target: T5, Kappa-type opioid receptor; experiment: SAR analysis of small molecule agonists of the kappa opioid receptor via a luminescent beta-arrestin assay - Set 3. [Related pubchem assays (depositor defined):AID1777, AID1785, AID1786, AID1966, AID2133, AID2136, AID2284, AID2500]; format: functional
EC50 [11],EC50 [12],EC50 [13],EC50 [14],SMILES,IC50 [1],IC50 [2],EC50 [3],IC50 [4],EC50 [5],EC50 [6],EC50 [7],IC50 [8],EC50 [9],IC50 [10]
–,–,–,–,CCn1c(CSc2nc3ccccc3s2)nnc1SCC(=O)c1ccc(O)c(O)c1,179 µM (active),3.87 µM (inactive),> 100 µM (inactive),> 100 µM (inactive),1.84 µM (active),64.2 µM (active),> 160 µM (inactive),> 100 µM (inactive),> 38 µM (not active),68.8 µM (active)
0.956 µM (active),> 64 µM (inactive),> 32 µM (inactive),1.24 µM (active),O=[N+]([O-])c1ccc(CSc2nnc(-c3ccccn3)n2Cc2cccs2)cc1,–,–,–,–,–,–,–,–,–,–
